Assay results from the supplement of paper PMC10307832.

What was measured:
Assay in all cases: relative viability (nuclei count vs DMSO), 5 days (fraction); higher = more cells survive
IPA-3 + Pictilisib = compound: C1=CC=C2C(=C1)C=CC(=C2SSC3=C(C=CC4=CC=CC=C43)O)O [IPA-3] + CS(=O)(=O)N1CCN(Cc2cc3nc(-c4cccc5[nH]ncc45)nc(N4CCOCC4)c3s2)CC1 [Pictilisib] (partner 1 µM)
Method in brief: (§1)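 Five library-drug doses in √10 steps were combined with a fixed anchor-drug dose, or a single drug was given alone, by pin tool to lung cancer cell lines in 1536-well plates the day after seeding. Nuclei were stained and counted after 5 days. Relative viability is the nuclei count in treated wells over that in vehicle wells, taken as the median of duplicate plates.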

RAF265 + Crizotinib = compound: Cn1c(Nc2ccc(C(F)(F)F)cc2)nc2cc(Oc3ccnc(-c4ncc(C(F)(F)F)[nH]4)c3)ccc21 [RAF265] + C[C@@H](Oc1cc(-c2cnn(C3CCNCC3)c2)cnc1N)c1c(Cl)ccc(F)c1Cl [Crizotinib] (partner 1 µM)
Method in brief: as §1

Doramapimod + Phenformin = compound: Cc1ccc(-n2nc(C(C)(C)C)cc2NC(=O)Nc2ccc(OCCN3CCOCC3)c3ccccc23)cc1 [Doramapimod] + N=C(N)NC(=N)NCCc1ccccc1 [Phenformin] (partner 250 µM)
Method in brief: as §1

Doramapimod + Olaparib = compound: Cc1ccc(-n2nc(C(C)(C)C)cc2NC(=O)Nc2ccc(OCCN3CCOCC3)c3ccccc23)cc1 [Doramapimod] + O=C(c1cc(Cc2n[nH]c(=O)c3ccccc23)ccc1F)N1CCN(C(=O)C2CC2)CC1 [Olaparib] (partner 8 µM)
Method in brief: as §1

Cell Line | relative viability (IPA-3 + Pictilisib; first compound 0.2 µM) | relative viability (IPA-3 + Pictilisib; first compound 0.6325 µM) | relative viability (IPA-3 + Pictilisib; first compound 2 µM) | relative viability (IPA-3 + Pictilisib; first compound 6.325 µM) | relative viability (IPA-3 + Pictilisib; first compound 20 µM) | relative viability (RAF265 + Crizotinib; first compound 0.01 µM) | relative viability (RAF265 + Crizotinib; first compound 0.03162 µM) | relative viability (RAF265 + Crizotinib; first compound 0.1 µM) | relative viability (RAF265 + Crizotinib; first compound 0.3162 µM) | relative viability (RAF265 + Crizotinib; first compound 1 µM) | relative viability (Doramapimod + Phenformin; first compound 0.02 µM) | relative viability (Doramapimod + Phenformin; first compound 0.06325 µM) | relative viability (Doramapimod + Phenformin; first compound 0.2 µM) | relative viability (Doramapimod + Phenformin; first compound 0.6325 µM) | relative viability (Doramapimod + Phenformin; first compound 2 µM) | relative viability (Doramapimod + Olaparib; first compound 0.02 µM) | relative viability (Doramapimod + Olaparib; first compound 0.06325 µM) | relative viability (Doramapimod + Olaparib; first compound 0.2 µM) | relative viability (Doramapimod + Olaparib; first compound 0.6325 µM) | relative viability (Doramapimod + Olaparib; first compound 2 µM)
NCI-H1355 | 0.396 | 0.396 | 0.466 | 0.484 | 0.401 | 1.11 | 1 | 1.02 | 0.766 | 0.337 | 0.423 | 0.467 | 0.454 | 0.421 | 0.415 | 0.76 | 0.732 | 0.708 | 0.721 | 0.7
NCI-H1437 | 0.562 | 0.486 | 0.458 | 0.61 | 0.616 | 0.902 | 0.808 | 0.998 | 1.05 | 0.768 | 0.359 | 0.271 | 0.3 | 0.275 | 0.273 | 0.645 | 0.641 | 0.654 | 0.657 | 0.637
NCI-H1650 | 0.811 | 0.391 | 0.569 | 0.551 | 0.736 | 1.03 | 0.83 | 1.15 | 0.877 | 0.913 | 0.464 | 0.419 | 0.482 | 0.655 | 0.233 | 0.82 | 0.831 | 0.682 | 0.874 | 0.884
NCI-H1651 | 0.649 | – | 0.581 | 0.659 | 0.799 | 0.829 | 0.912 | 0.904 | 0.88 | 0.81 | 0.323 | 0.317 | 0.348 | 0.415 | 0.45 | 0.203 | 0.19 | 0.17 | 0.204 | 0.194
NCI-H1666 | 0.541 | 0.521 | 0.445 | 0.403 | 0.541 | 1.11 | 1.08 | 1.06 | 0.971 | 0.651 | 0.601 | 0.555 | 0.61 | 0.581 | 0.554 | 0.844 | 0.743 | 0.751 | 0.775 | 0.748
NCI-H1734 | 0.469 | 0.473 | 0.441 | 0.494 | 0.435 | 0.662 | 0.47 | 0.751 | 0.492 | 0.319 | 0.332 | 0.344 | 0.344 | 0.355 | 0.289 | 0.572 | 0.595 | 0.587 | 0.573 | 0.497
NCI-H1755 | 0.455 | 0.358 | 0.397 | 0.345 | 0.536 | 0.837 | 0.757 | 0.813 | 0.685 | 0.476 | 0.577 | 0.596 | 0.6 | 0.541 | 0.559 | 0.865 | 0.85 | 0.847 | 0.811 | 0.829
NCI-H1792 | 0.258 | 0.285 | 0.25 | 0.272 | 0.325 | 1.01 | 0.989 | 0.977 | 0.839 | 0.419 | 0.389 | 0.381 | 0.217 | 0.476 | 0.214 | 0.408 | 0.459 | 0.457 | 0.486 | 0.268
NCI-H1915 | 0.956 | 0.987 | 0.903 | 0.966 | 0.933 | 0.875 | 0.81 | 0.727 | 0.496 | 0.234 | 0.362 | 0.357 | 0.375 | 0.348 | 0.298 | 0.285 | 0.287 | 0.252 | 0.254 | 0.233
NCI-H1944 | 0.351 | 0.344 | 0.371 | 0.38 | 0.345 | 1.09 | 1.26 | 1.08 | 0.794 | 0.664 | 0.181 | 0.201 | 0.196 | 0.227 | 0.166 | 0.394 | 0.434 | 0.438 | 0.409 | 0.371
NCI-H1975 | 0.342 | 0.284 | 0.316 | 0.321 | 0.259 | 0.894 | 0.77 | 0.679 | 0.456 | 0.451 | 0.41 | 0.382 | 0.411 | 0.415 | 0.397 | 0.717 | 0.85 | 0.864 | 0.768 | 0.82
NCI-H1993 | 0.735 | 0.742 | 0.969 | 0.681 | 1.04 | 0.725 | 0.85 | 0.993 | 0.759 | 0.758 | 0.512 | 0.484 | 0.543 | 0.542 | 0.548 | 0.983 | 0.908 | 1.14 | 1.07 | 0.794
NCI-H2009 | 0.889 | 0.726 | 0.784 | 0.83 | 0.57 | 1.07 | 0.91 | 0.96 | 0.805 | 0.629 | 0.506 | 0.543 | 0.546 | 0.478 | 0.408 | 0.669 | 0.697 | 0.669 | 0.712 | 0.622
NCI-H2023 | 0.275 | 0.243 | 0.248 | 0.301 | 0.258 | 0.624 | 0.58 | 0.88 | 0.668 | 0.478 | 0.413 | 0.379 | 0.404 | 0.415 | 0.323 | 0.546 | 0.534 | 0.491 | 0.563 | 0.456
NCI-H2085 | 0.44 | 0.44 | 0.447 | 0.426 | 0.535 | 0.696 | 0.886 | 0.858 | 1.05 | 0.806 | 0.758 | 0.623 | 0.592 | 0.705 | 0.661 | 0.886 | 0.844 | 0.756 | 0.871 | 0.823
NCI-H2087 | 0.891 | 0.784 | 0.894 | 0.936 | 1.01 | 0.71 | 0.7 | 0.818 | 0.637 | 0.692 | 0.403 | 0.459 | 0.411 | 0.415 | 0.412 | 0.562 | 0.577 | 0.525 | 0.675 | 0.481
NCI-H2126 | 0.48 | 0.505 | 0.449 | 0.503 | 0.512 | 1.02 | 1.04 | 1.03 | 0.96 | 0.754 | 0.527 | 0.526 | 0.505 | 0.496 | 0.489 | 0.768 | 0.925 | 0.989 | 0.962 | 0.94
NCI-H2170 | 0.324 | 0.302 | 0.303 | 0.303 | 0.346 | 1.22 | 1.08 | 1.09 | 0.784 | 0.771 | 0.418 | 0.403 | 0.474 | 0.368 | 0.426 | 0.596 | 0.643 | 0.57 | 0.588 | 0.605
NCI-H2228 | 0.74 | 0.223 | 0.343 | 0.513 | 0.439 | 0.382 | 0.369 | 0.333 | 0.356 | 0.321 | 0.249 | 0.385 | 0.273 | 0.333 | 0.27 | 0.558 | 0.599 | 0.857 | 0.811 | 0.592
NCI-H2347 | 0.423 | 0.644 | 0.522 | 0.717 | 0.605 | 0.699 | 0.664 | 0.504 | 0.551 | 0.287 | 0.429 | – | 0.429 | 0.386 | 0.398 | 0.618 | 0.641 | 0.546 | 0.575 | 0.53
NCI-H2405 | 0.458 | 0.382 | 0.354 | 0.519 | 0.416 | 0.846 | 0.803 | 0.872 | 0.756 | 0.566 | 0.402 | 0.374 | 0.335 | 0.423 | 0.316 | 0.912 | 0.828 | 0.765 | 0.816 | 0.836
NCI-H3122 | 0.612 | 0.566 | 0.559 | 0.697 | 0.594 | 0.305 | 0.287 | 0.305 | 0.251 | 0.283 | 0.381 | 0.423 | 0.407 | 0.38 | 0.36 | 0.694 | 0.62 | 0.721 | 0.599 | 0.599
PC-3 [JPC-3] | 0.863 | 0.774 | 0.696 | 0.668 | 0.772 | 0.989 | 0.986 | 1.06 | 0.417 | 0.63 | 0.506 | 0.475 | 0.474 | 0.502 | 0.453 | 1.3 | 1.16 | 1.22 | 1.33 | 1.14
PC-14 | 1.1 | 0.562 | 0.804 | 0.678 | 1.19 | 0.872 | 0.818 | 0.995 | – | 0.68 | 0.662 | 0.721 | 0.809 | 0.762 | 0.475 | 0.351 | 0.36 | 0.342 | 0.281 | 0.269
RERF-LC-KJ | 0.626 | 0.501 | 0.537 | 0.38 | 0.486 | 0.867 | 0.818 | 0.93 | 0.852 | 0.632 | 0.401 | 0.443 | 0.395 | 0.472 | 0.458 | 0.916 | 0.864 | 1.08 | 1.01 | 0.887
SK-LU-1 | 0.617 | 0.612 | 0.579 | 0.712 | 0.645 | 0.45 | 0.753 | 0.73 | 0.477 | 0.397 | 0.613 | 0.516 | 0.542 | 0.61 | 0.46 | 0.487 | 0.43 | 0.39 | 0.503 | 0.388
SK-MES-1 | 0.415 | 0.357 | 0.321 | 0.34 | 0.403 | 1 | 0.88 | 0.919 | 0.334 | 0.242 | 0.634 | 0.648 | 0.648 | 0.628 | 0.568 | 0.707 | 0.694 | 0.638 | 0.683 | 0.607
SW 1573 | 0.593 | 0.503 | 0.6 | 0.479 | 0.61 | 0.869 | 0.632 | 0.842 | 0.663 | 0.406 | 0.355 | 0.304 | 0.306 | 0.301 | 0.236 | 0.446 | 0.425 | 0.456 | 0.546 | 0.433
